Data taken from patent publication US11434492B2, “Ribosome-mediated incorporation of peptides and peptidomimetics” (Arizona Board of Regents on behalf of Arizona State …, priority 2015, dated 2022).
Where “and” joins values, the source holds several entries; their conditions need not be identical. Equal entries are not always repeated. Peptide text beside a SMILES is read from it.

Tests used:
[1] = system: modified ribosomes (23S rRNA modified); assay: In vitro translation: suppression of UAG codon at position 10 of DHFR mRNA, S-30 systems having modified ribosomes; format: biochemical, E. coli; conditions: for Suppression efficiency in different S-30 systems, having modified ribosomes (%): position 10 of E. coli DHFR, relative to wild-type DHFR = 100
Description: Preparation of Aminoacyl-tRNACUAs. The activation of suppressor tRNACUAs was carried out as described previously.^4,5 Briefly, 100-μL reaction mixture of 100 mM Na Hepes, pH 7.5, contained 1.0 mM ATP, 15 mM MgCl2, 100 μg of suppressor tRNACUA-COH, 0.5 A260 unit of N-pentenoyl-protected aminoacyl-pdCpA, 15% DMSO, and 100 units of T4 RNA ligase. The reaction mixture was incubated at 37° C. for 1.5 h and quenched by the addition of 0.1 vol of 3 M NaOAc, pH 5.2. The N-protected aminoacylated tRNA was precipitated with 3 vol of cold ethanol. The efficiency of ligation was estimated by 8% polyarylamide-7 M urea gel electrophoresis (pH 5.0).
The N-pentenoyl-protected aminoacyl-tRNACUAs were deprotected by treatment with 5 mM aqueous […] at 25° C. for 15 min. The solution was centrifuged, and the supernatant was adjusted to 0.3 M NaOAc and treated with 3 vol of cold ethanol to precipitate the aminoacylated tRNA. The tRNA pellet was collected by centrifugation, washed with 70% aq EtOH, air dried and dissolved in 20 μL of RNase free water.
Preparation of S-30 Extracts from Cells Having Modified Ribosomes. Aliquots (5-10 μL) from liquid stocks of E. coli BL-21 (DE-3) cells, harboring plasmids with a wild-type or modified rrnB gene, were placed on LB agar supplemented with 100 µg/mL of ampicillin and grown at 37° C. for 16-18 h. One colony was picked from each agar plate and transferred into 3 mL of LB medium supplemented with 100 μg/mL of ampicillin and 0.5 mM IPTG.
(§1) In vitro Protein Translation. Protein translation reactions were carried out in 12-2000 μL of incubation mixture containing 0.4 μL/μL of S-30 system, 100 ng/μL of plasmid, 35 mM Tris acetate, pH 7.4, 190 mM potassium glutamate, 30 mM ammonium acetate, 2 mM DTT, 0.2 mg/mL total E. coli tRNA, 3.5% PEG 6000, 20 μg/mL folinic acid, 20 mM ATP and GTP, 5 mM CTP and UTP, 100 μM amino acids mixture, 0.5 μCi/μL of ^35S-methionine for analytical purposes only and 1 μg/mL rifampicin. In the case of plasmids having a gene with a TAG codon, a suppressor tRNA was added to a concentration of 0.8 μg/μL. Reactions were carried out at 37° C. for 1 h (for 12 μL reaction mixtures) to 1.5 h (for 2000 μL reaction mixtures) and terminated by chilling on ice. Aliquots from in vitro translation mixtures were analyzed by SDS-PAGE followed by quantification of the radioactive bands by phosphorimager analysis.
Incorporation of Dipeptides 2, 3 and 4 into DHFR Using the Modified Ribosomes. Initially, glycylphenylalanine (2) was chosen to screen the selected modified ribosomes for their ability to incorporate a dipeptide into DHFR. It was anticipated that minimal steric hindrance and more flexibility at the N-terminus of the dipeptide (a glycine residue) would enable optimal positioning of the amine for a nucleophilic attack in the PTC of the modified ribosomes. A modified DHFR construct, having a TAG codon in position 10 (pETDH10 plasmid) was used for the incorporation of glycylphenylalanine.
The suppression efficiencies were expressed relative to the wild-type DHFR synthesis. As a negative control, wild-type DHFR synthesis in the presence of nonacylated-tRNACUA was measured for each experiment. The amounts of DHFR produced were quantified with a phosphoimager, which monitored the incorporation of ^35S-methionine into DHFR. Using glycylphenylalanyl-tRNACUA, S-30 preparations having the modified ribosomes from clone groups 1, 2, 3 and 9 produced full length DHFR in ˜9% yields relative to the wild-type DHFR synthesis (Table 3). The modified ribosomes from clone groups 4-8 incorporated glycylphenylalanine (2) with low yields (˜2-4%). For dipeptide 2, best incorporation yields (up to 12%) were obtained by S-30 system having modified ribosomes from clone group 9 (2057AGUGAGA2063 and 2502AUCCGA2507).

[2] = system: wild-type ribosomes; assay: In vitro translation: suppression of UAG codon at position 10 of DHFR mRNA, S-30 preparation having wild-type ribosomes; format: biochemical, E. coli; conditions: compared to wild-type DHFR synthesis
Description: as §1
Incorporation of Glycylphenylalanine (2) Using the Wild-Type Ribosome. The wild-type ribosomes synthesize polypeptide chains by incorporating one α-L-amino acid at a time via one monoacylated tRNA for each corresponding codon in the mRNA transcript.^6 Ribosome mediated sequential incorporation of two amino acids for one codon using bisacylated tRNAs has not been reported to date. […]

[3] = system: modified ribosomes from clone 010326R6; assay: In vitro translation: suppression of TAG codon at position 66 of GFP (pETGFP66), S-30 from clone 010326R6; format: biochemical, Escherichia coli
Description: as §1
The free amino acids both have λex in the range 296-302 nm but the λem of 7 is somewhat red-shifted compared to that of 6. […] As a negative control, wild-type GFP synthesis from the modified mRNA in the presence of nonacylated tRNACUA was measured for each experiment. The amounts of GFP produced were quantified with a phosphoimager, which monitored the incorporation of ^35S-methionine into proteins. […]

[4] = system: E. coli clones having mutations in two regions of the PTC in the 23S rRNA (modified ribosomes); assay: Inhibition of cell growth by dipeptidyl-puromycin aminonucleoside 1 (selection of modified ribosomes); format: cell-based; conditions: 100 μg/mL 1
Description: Selection of Modified Ribosomes using Dipeptidyl-puromycin Aminonucleoside The selection experiments were carried on in a fashion similar to that described previously. (1) Briefly, library from 419 clones, having mutations in two regions of the PTC in the 23S rRNA (2057-2063 and 2496-2501 or 2502-2507) and organized in five 96 well plates (“master plates”), were used for selection of variants with modified ribosome. Three new plates were prepared for each “master plate” by transferring 2 μL of culture from each well of the master plate to the corresponding well of new plate and 98 μL assay solution was added to each well.
A solution without any puromycin derivative was used for control plate. All plates were incubated at 37° C. for 16-18 h in a thermostated shaker, and extent of cell growth was estimated by measuring the optical density at 600 nm. Inhibition of cell growth by 1 was estimated as described in previously. Clones with inhibition value more than 50% were taken for verification. […] Plates were incubated at 37° C. for 16-18 h in a thermostated shaker, extent of cell growth was estimated by measuring the optical density at 600 nm and IC50 data was calculated for each culture.
It was anticipated that the ribosomes of those clones which show sensitivity for 1 would be more likely to accommodate dipeptides or dipeptidomimetics in the PTC during peptide synthesis. […] Plasmids from these clones were isolated and sequenced.

## NCC(=O)N[C@@H](Cc1ccccc1)C(=O)O [dipeptide 2, glycylphenylalanine] (H-Gly-Phe-OH)
[1]; clone group 1
  Suppression efficiency in different S-30 systems, having modified ribosomes (%): ~9% and 8.4 ± 1.6%
[1]; clone group 2
  Suppression efficiency in different S-30 systems, having modified ribosomes (%): ~8% and 9.5 ± 0.5%
[1]; clone group 3
  Suppression efficiency in different S-30 systems, having modified ribosomes (%): 9% and 8.6 ± 1.5%
[1]; clone group 4
  Suppression efficiency in different S-30 systems, having modified ribosomes (%): 3.1 ± 0.2%
[1]; clone group 5
  Suppression efficiency in different S-30 systems, having modified ribosomes (%): 4.5 ± 0.7%
[1]; clone group 6
  Suppression efficiency in different S-30 systems, having modified ribosomes (%): 3.5%
[1]; clone group 7
  Suppression efficiency in different S-30 systems, having modified ribosomes (%): 2.1 ± 0.1%
[1]; clone group 8
  Suppression efficiency in different S-30 systems, having modified ribosomes (%): 2.2%
[1]; clone groups 1, 2, 3 and 9, position 10 of DHFR
  full length DHFR yield relative to the wild-type DHFR synthesis: ~9%
[1]; clone groups 4-8, position 10 of DHFR
  incorporation yield relative to the wild-type DHFR synthesis: 2-4%
[2]
  suppression efficiency: ~2%

## N[C@@H](Cc1ccccc1)C(=O)NCC(=O)O [dipeptide 3, phenylalanylglycine] (H-Phe-Gly-OH)
[1]; clone group 1
  Suppression efficiency in different S-30 systems, having modified ribosomes (%): ~14% and 13.9 ± 1.7%
[1]; clone group 2
  Suppression efficiency in different S-30 systems, having modified ribosomes (%): ~12% and 10.6 ± 0.5%
[1]; clone group 3
  Suppression efficiency in different S-30 systems, having modified ribosomes (%): 10% and 12.7 ± 2.5%
[1]; clone group 9
  Suppression efficiency in different S-30 systems, having modified ribosomes (%): ~13% and 13.3 ± 2.5%

## COc1ccc(-c2sc(CN)nc2C(=O)O)cc1 [dipeptidomimetic 7]
[3]
  suppression yield (full length GFP) relative to wild-type GFP synthesis: ~3.5%

## COc1ccc(C[C@H](N)C(=O)NCC(=O)N[C@H]2[C@@H](O)[C@H](n3cnc4c(N(C)C)ncnc43)O[C@@H]2CO)cc1 [puromycin derivative 1, 9-[3″-Deoxy-3″-(O-methyl-(S)-tyrosylglycyl)-β-D-ribofuranosyl]-6-(N,N″ dimethylamino)purine]
[4]; Wild-type ribosomes
  Inhibition by Puromycin Derivative 1 (%): <1%
[4]; clone 010309R3 (clone group 1)
  Inhibition by Puromycin Derivative 1 (%): 63.2%
[4]; clone 010310R1 (clone group 4)
  Inhibition by Puromycin Derivative 1 (%): 52.9%
[4]; clone 010310R4 (clone group 2)
  Inhibition by Puromycin Derivative 1 (%): 52.9%
[4]; clone 010322 (clone group 1)
  Inhibition by Puromycin Derivative 1 (%): 77%
[4]; clone 010326R1 (clone group 5)
  Inhibition by Puromycin Derivative 1 (%): 50.4%
[4]; clone 010326R5 (clone group 3)
  Inhibition by Puromycin Derivative 1 (%): 50.4%
[4]; clone 010326R6 (clone group 1)
  Inhibition by Puromycin Derivative 1 (%): 50.4%
[4]; clone 010328R2 (clone group 5)
  Inhibition by Puromycin Derivative 1 (%): 77%
[4]; clone 010328R4 (clone group 1)
  Inhibition by Puromycin Derivative 1 (%): 61%
[4]; clone 040322 (clone group 6)
  Inhibition by Puromycin Derivative 1 (%): 54%
[4]; clone 040329 (clone group 7)
  Inhibition by Puromycin Derivative 1 (%): 54%
[4]; clone 040338 (clone group 8)
  Inhibition by Puromycin Derivative 1 (%): 56%
[4]; clone 080337 (clone group 9)
  Inhibition by Puromycin Derivative 1 (%): 51%

## phenylalanylphenylalanyl [dipeptide 4]
[1]; clone group 1
  Suppression efficiency in different S-30 systems, having modified ribosomes (%): ~4%
